Drawing on ChEMBL document CHEMBL3045971, “Normalizing effects of Costus speciosus rhizome crude extracts and its fractions on diabetic complications in STZ-induced diabetic rats” (Med Chem Res, 2011), this text covers Activity for two molecules.

The test system of series [1] is Rattus norvegicus. Kind of series: Antidiabetic activity in Rattus norvegicus Wistar (rat) assessed as STZ-induced plasma glucose level at 5 mg/kg, po administered for 15 days by glucose oxidase method (reference value: 377.3 +/- 10.5 mg/dl). The class given is functional.
Series [2] has as its system Rattus norvegicus. Kind of series: Effect on plasma glucose level in normal Rattus norvegicus Wistar (rat) at 20 mg/kg, po administered for 15 days by glucose oxidase method (reference value: 85.7 +/- 7.2 mg/dl). Also on record: dose 20 mg/kg, route oral. As to conditions: in vivo, 360 h. The format is organism-based.
Series [3] has as its system Rattus norvegicus. Kind of series: Antidiabetic activity in Rattus norvegicus Wistar (rat) assessed as STZ-induced plasma glucose level at 10 mg/kg, po administered for 15 days by glucose oxidase method (reference value: 377.3 +/- 10.5 mg/dl). The class given is functional.
Series [4] has as its system Rattus norvegicus. The experiment in a line: Antidiabetic activity in Rattus norvegicus Wistar (rat) assessed as STZ-induced plasma glucose level at 20 mg/kg, po administered for 15 days by glucose oxidase method (reference value: 377.3 +/- 10.5 mg/dl). The format is functional.
Series [5] has as its system Rattus norvegicus. Kind of series: Antidiabetic activity in po dosed Rattus norvegicus Wistar (rat) assessed as decrease in STZ-induced plasma glucose level administered for 15 days by glucose oxidase method. The class given is functional, organism-based.

As for `C=C1C(=O)O[C@@H]2/C=C(\C)CC/C=C(\C)CC[C@@H]12` [COSTUNOLIDE], the Activity is 285.5 mg/dL with Rattus norvegicus [1]; 85.5 mg/dL with Rattus norvegicus [2]; 240.7 mg/dL in the series with Rattus norvegicus [3]; 167 mg/dL with Rattus norvegicus [4]; “Dose-dependent effect” in the series on Rattus norvegicus [5].
Taken in the same sequence, the figures for `C=C1CC[C@H]2C(C)=CC[C@H]3C(=C)C(=O)O[C@@H]3[C@@H]12` [EREMANTHIN] were 308.41 mg/dL, 95.57 mg/dL, 265.27 mg/dL, 188.76 mg/dL and “Dose-dependent effect”.
